Data published in patent US11077090B2, “Compounds and compositions and uses thereof” (Sunovion Pharmaceuticals Inc., priority 2016, dated 2021).

test system: compound-treated mice; assay: Neuropharmacological assay (SmartCube): behavioral activity signature and minimal effective dose; type: in vivo; settings: Mus musculus, ip, MED = dose having 50% or more total activity, read-out: Potency: minimal effective dose (MED)
Summary of the method: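 Video-recorded behavior is compared algorithmically against a reference-compound database, yielding class probabilities (best dose reported). Compounds given i.p. in NMP/PEG/propylene glycol 15 min pre-test at 3 doses; potency as MED, the dose (mpk, range usually 0.3–30) reaching ≥50% total activity.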

SMILES | minimal effective dose
Cl.NC1COCc2ccc3c(c21)C1CCC3C1 (centres unmarked) [Example 51, 2,4,7,8,9,10-Hexahydro-1H-7,10-methanobenzo[f]isochromen-1-amine hydrochloride] | 3 to 10 mg/kg
Cl.NC1COCc2ccc3c(c21)CCCO3 (centres unmarked) [Example 52, 1,2,4,8,9,10-Hexahydropyrano[4,3-f]chromen-1-amine hydrochloride] | 3 to 10 mg/kg
CCc1cccc2c1C(N)COC2.Cl (centres unmarked) [Example 53, 5-Ethylisochroman-4-amine hydrochloride] | 3 to 10 mg/kg
CNC1COCc2ccccc21.Cl (centres unmarked) [Example 54, N-Methylisochroman-4-amine hydrochloride] | 10 to 30 mg/kg
Cc1ccc2c(c1C)C(NC(C)C)COC2.Cl (centres unmarked) [Example 55] | 3 to 10 mg/kg
Cc1ccc2c(c1C)C(NCCO)COC2.Cl (centres unmarked) [Example 56] | 10 to 30 mg/kg
CNC1COCc2ccc(C)c(C)c21.Cl (centres unmarked) [Example 57, N,5,6-Trimethylisochroman-4-amine hydrochloride] | 3 to 10 mg/kg
CCNC1COCc2ccc(C)c(C)c21.Cl (centres unmarked) [Example 58] | 3 to 10 mg/kg
CNC1CCOCc2ccc(C)cc21.Cl (centres unmarked) [Example 59] | 3 to 10 mg/kg
CN(C)C1COCc2ccccc21.Cl (centres unmarked) [Example 60, N,N-dimethylisochroman-4-amine hydrochloride] | 10 to 30 mg/kg
Cc1ccc2c(c1C)C(N(C)C)COC2.Cl (centres unmarked) [Example 61] | 10 to 30 mg/kg

same assay, conditions: i.p. 15 min before test, most efficacious dose(s)

SMILES | AD: ADHD (probability of activity signature) | AG: analgesic (probability of activity signature) | CE: cognitive enhancer (probability of activity signature) | MS: mood stabilizer (probability of activity signature) | AX: anxiolytic (probability of activity signature) | DP: anti-depressant (probability of activity signature) | PS: anti-psychotic (probability of activity signature) | SD: sedative hypnotic (probability of activity signature) | UN: uncharacterized CNS activity (probability of activity signature)
Cl.NC1COCc2ccc3c(c21)C1CCC3C1 (centres unmarked) [Example 51, 2,4,7,8,9,10-Hexahydro-1H-7,10-methanobenzo[f]isochromen-1-amine hydrochloride] | + (LOQ ≤ + <5%) | ++ (5% ≤ ++ <25%) | ++ (5% ≤ ++ <25%) | + (LOQ ≤ + <5%) | – | – | – | – | –
Cl.NC1COCc2ccc3c(c21)CCCO3 (centres unmarked) [Example 52, 1,2,4,8,9,10-Hexahydropyrano[4,3-f]chromen-1-amine hydrochloride] | + (LOQ ≤ + <5%) | ++ (5% ≤ ++ <25%) | ++ (5% ≤ ++ <25%) | + (LOQ ≤ + <5%) | +++ (25% ≤ +++ <50%) | ++ (5% ≤ ++ <25%) | ++ (5% ≤ ++ <25%) | ++ (5% ≤ ++ <25%) | + (LOQ ≤ + <5%)
CCc1cccc2c1C(N)COC2.Cl (centres unmarked) [Example 53, 5-Ethylisochroman-4-amine hydrochloride] | + (LOQ ≤ + <5%) | ++ (5% ≤ ++ <25%) | ++ (5% ≤ ++ <25%) | + (LOQ ≤ + <5%) | ++ (5% ≤ ++ <25%) | ++ (5% ≤ ++ <25%) | ++ (5% ≤ ++ <25%) | ++ (5% ≤ ++ <25%) | ++++ (50% ≤ ++++)
CNC1COCc2ccccc21.Cl (centres unmarked) [Example 54, N-Methylisochroman-4-amine hydrochloride] | + (LOQ ≤ + <5%) | ++ (5% ≤ ++ <25%) | + (LOQ ≤ + <5%) | + (LOQ ≤ + <5%) | ++ (5% ≤ ++ <25%) | ++ (5% ≤ ++ <25%) | ++ (5% ≤ ++ <25%) | + (LOQ ≤ + <5%) | +++ (25% ≤ +++ <50%)
Cc1ccc2c(c1C)C(NC(C)C)COC2.Cl (centres unmarked) [Example 55] | + (LOQ ≤ + <5%) | ++ (5% ≤ ++ <25%) | ++ (5% ≤ ++ <25%) | + (LOQ ≤ + <5%) | ++ (5% ≤ ++ <25%) | + (LOQ ≤ + <5%) | ++ (5% ≤ ++ <25%) | + (LOQ ≤ + <5%) | +++ (25% ≤ +++ <50%)
Cc1ccc2c(c1C)C(NCCO)COC2.Cl (centres unmarked) [Example 56] | + (LOQ ≤ + <5%) | +++ (25% ≤ +++ <50%) | ++ (5% ≤ ++ <25%) | + (LOQ ≤ + <5%) | ++ (5% ≤ ++ <25%) | ++ (5% ≤ ++ <25%) | + (LOQ ≤ + <5%) | + (LOQ ≤ + <5%) | + (LOQ ≤ + <5%)
CNC1COCc2ccc(C)c(C)c21.Cl (centres unmarked) [Example 57, N,5,6-Trimethylisochroman-4-amine hydrochloride] | + (LOQ ≤ + <5%) | ++ (5% ≤ ++ <25%) | +++ (25% ≤ +++ <50%) | + (LOQ ≤ + <5%) | ++ (5% ≤ ++ <25%) | ++ (5% ≤ ++ <25%) | ++ (5% ≤ ++ <25%) | ++ (5% ≤ ++ <25%) | +++ (25% ≤ +++ <50%)
CCNC1COCc2ccc(C)c(C)c21.Cl (centres unmarked) [Example 58] | + (LOQ ≤ + <5%) | ++ (5% ≤ ++ <25%) | ++ (5% ≤ ++ <25%) | + (LOQ ≤ + <5%) | ++ (5% ≤ ++ <25%) | ++ (5% ≤ ++ <25%) | ++ (5% ≤ ++ <25%) | ++ (5% ≤ ++ <25%) | +++ (25% ≤ +++ <50%)
CNC1CCOCc2ccc(C)cc21.Cl (centres unmarked) [Example 59] | + (LOQ ≤ + <5%) | +++ (25% ≤ +++ <50%) | ++ (5% ≤ ++ <25%) | + (LOQ ≤ + <5%) | ++ (5% ≤ ++ <25%) | ++ (5% ≤ ++ <25%) | ++ (5% ≤ ++ <25%) | ++ (5% ≤ ++ <25%) | +++ (25% ≤ +++ <50%)
CN(C)C1COCc2ccccc21.Cl (centres unmarked) [Example 60, N,N-dimethylisochroman-4-amine hydrochloride] | + (LOQ ≤ + <5%) | ++ (5% ≤ ++ <25%) | ++ (5% ≤ ++ <25%) | + (LOQ ≤ + <5%) | +++ (25% ≤ +++ <50%) | ++ (5% ≤ ++ <25%) | ++ (5% ≤ ++ <25%) | + (LOQ ≤ + <5%) | + (LOQ ≤ + <5%)
Cc1ccc2c(c1C)C(N(C)C)COC2.Cl (centres unmarked) [Example 61] | + (LOQ ≤ + <5%) | ++ (5% ≤ ++ <25%) | ++ (5% ≤ ++ <25%) | + (LOQ ≤ + <5%) | ++ (5% ≤ ++ <25%) | + (LOQ ≤ + <5%) | ++ (5% ≤ ++ <25%) | + (LOQ ≤ + <5%) | ++++ (50% ≤ ++++)

same assay, conditions: i.p. 15 min before test, most efficacious dose(s), hydrochloride

SMILES | AX: anxiolytic (probability of activity signature) | DP: anti-depressant (probability of activity signature) | PS: anti-psychotic (probability of activity signature) | SD: sedative hypnotic (probability of activity signature) | UN: uncharacterized CNS activity (probability of activity signature)
Cl.NC1COCc2ccc3c(c21)C1CCC3C1 (centres unmarked) [Example 51, 2,4,7,8,9,10-Hexahydro-1H-7,10-methanobenzo[f]isochromen-1-amine hydrochloride] | ++ (5% ≤ ++ <25%) | ++ (5% ≤ ++ <25%) | ++ (5% ≤ ++ <25%) | + (LOQ ≤ + <5%) | ++++ (50% ≤ ++++)
